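Compound exposure: 48 hours, 5 concentrations, 96-well plates. Abbreviation: GI50, concentration required for 50% inhibition of growth. TGI denotes the concentration required for complete inhibition of growth.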
Experiments:
Experiment in all cases: NCI anticancer screen, dose series, 48 h
SF-539 CNS = test system: SF-539 CNS
SK-MEL-2 melanoma = test system: SK-MEL-2 melanoma
SNB-19 CNS = test system: SNB-19 CNS
SK-MEL-5 melanoma = test system: SK-MEL-5 melanoma
UO-31 renal = test system: UO-31 renal
SR leukemia = test system: SR leukemia
DMS 273 small cell lung = test system: DMS 273 small cell lung
SK-MEL-28 melanoma = test system: SK-MEL-28 melanoma
DMS 114 small cell lung = test system: DMS 114 small cell lung
BT-549 breast = test system: BT-549 breast

| SMILES | TGI (SF-539 CNS) [µM] | TGI (SK-MEL-2 melanoma) [µM] | TGI (SNB-19 CNS) [µM] | TGI (SK-MEL-5 melanoma) [µM] | TGI (UO-31 renal) [µM] | TGI (SR leukemia) [µM] | TGI (DMS 273 small cell lung) [µM] | TGI (SK-MEL-28 melanoma) [µM] | TGI (DMS 114 small cell lung) [µM] | GI50 (SF-539 CNS) [µM] | GI50 (SK-MEL-2 melanoma) [µM] | GI50 (SNB-19 CNS) [µM] | GI50 (SK-MEL-5 melanoma) [µM] | GI50 (UO-31 renal) [µM] | GI50 (SR leukemia) [µM] | GI50 (DMS 273 small cell lung) [µM] | GI50 (SK-MEL-28 melanoma) [µM] | GI50 (DMS 114 small cell lung) [µM] | TGI (BT-549 breast) [µM] |
| --- | --- | --- | --- | --- | --- | --- | --- | --- | --- | --- | --- | --- | --- | --- | --- | --- | --- | --- | --- |
| Cc1ccc(NC(=O)CC2C(=O)Nc3ccccc3S2(=O)=O)c(C)c1 (stereo not given) | 30.8 | 73.8 | 32.6 | 19.5 | 39.8 | 19.1 | 25.8 | 41.1 | 39.2 |  |  |  |  |  |  |  |  |  |  |
| O=C1Nc2ccccc2N=CC1NC(=O)C(c1ccccc1)c1ccccc1 (stereo not given) | > 100 | > 100 | > 100 | > 100 | > 100 |  | > 100 | > 100 | > 100 |  |  |  |  |  |  |  |  |  |  |
| CC12CCC(=O)N1c1ccc([N+](=O)[O-])cc1N2 (stereo not given) | > 100 | > 100 | > 100 | > 100 | > 100 | > 100 | > 100 | > 100 | > 100 |  |  |  |  |  |  |  |  |  |  |
| O=S(=O)(/C=C/C(=C/c1ccccc1)S(=O)(=O)c1ccccc1)c1ccccc1 | 3.15 | 3.54 | 3.18 |  | 3.22 | 4.41 | 2.9 | 2.8 | 3.32 |  |  |  |  |  |  |  |  |  |  |
| C[CH2][Sn]([CH2]C)([O]C(=O)c1ccccc1OC)[O][Sn]([CH2]C)([CH2]C)[O]C(=O)c1ccccc1OC | > 100 | > 100 | > 100 | > 100 | > 100 | > 100 | > 100 | > 100 | > 100 | > 100 | 91.5 | > 100 | > 100 | > 100 | > 100 | > 100 | > 100 | 30 |  |
| Cc1ccc(S(=O)(=O)N/N=C(/CC(=O)c2c(C)n([O-])c3ccccc3[n+]2=O)C(=O)Nc2ccccc2C)cc1 | > 100 | > 100 | > 100 |  | > 100 | > 100 | > 100 | > 100 | > 100 |  |  |  |  |  |  |  |  |  |  |
| CC(=O)OCCOCNC(=S)N/N=C/c1cc(Br)cs1 | > 100 | > 100 | > 100 | > 100 | > 100 | > 100 | > 100 | > 100 | > 100 |  |  |  |  |  |  |  |  |  |  |
| O=C(c1nc2ccccc2[nH]c1=O)C(O)c1ccccc1 (stereo not given) | > 100 | > 100 | > 100 | > 100 | > 100 | > 100 | > 100 | > 100 | > 100 |  |  |  |  |  |  |  |  |  |  |
| Cc1ccc(C)c(N2C(=O)C(=O)C(c3nc4ccccc4s3)/C(=N/NC(=O)NN)C2=O)c1 (stereo not given) | > 100 | > 100 | > 100 | > 100 | > 100 | > 100 | > 100 | > 100 | > 100 |  |  |  |  |  |  |  |  |  |  |
| C=C1CCC2[C@@H](CCC3[C@]2(C)CCC[C@]3(C)C(=O)OC)C1CC=O (stereo not given in full) | 31.1 | 38.2 | 33.1 | 33.9 | 28.9 |  | 40.7 | 30.7 | 34.7 |  |  | 18.2 |  | 14.8 |  |  |  |  |  |
| C[N+](C)(C)CC1CCCC1=O (stereo not given) | 6.05 | 12.2 | 50.8 | 12.5 | 8.79 |  | 19.9 | 3.72 | 8.31 |  |  |  |  |  |  |  |  |  | 2.32 |
| COc1ccc(-c2cc(C(=O)Nc3ccc(C)c(C)c3)nc(NC#N)n2)cc1 | > 100 | > 100 | > 100 | > 100 | > 100 |  | > 100 | > 100 | > 100 |  |  |  |  |  |  |  |  |  |  |
| CC1(c2ccccc2Cl)C(C#N)C(=O)NC(=O)C1C#N (stereo not given) | > 100 | > 100 | 92.8 | 74.2 | > 100 |  | > 100 | > 100 | > 100 |  |  |  |  |  |  |  |  |  |  |
| COCCNC(=O)C1C(=O)C(=O)N(CCOC)C1=O (stereo not given) | > 100 | > 100 | > 100 | > 100 | > 100 | > 100 | > 100 | > 100 | > 100 |  |  |  |  |  |  |  |  |  |  |
| Cc1nc(C(=O)O)c2ccccc2n1 | > 100 | > 100 | > 100 | > 100 | > 100 | > 100 | > 100 | > 100 | > 100 |  |  |  |  |  |  |  |  |  |  |

Reference: PubChem BioAssay (NCI)
